Reference: paper PMC6244206, “C-Terminal Residue of Ultrashort Peptides Impacts on Molecular Self-Assembly, Hydrogelation, and Interaction with Small-Molecule Drugs” (Scientific Reports, 2018)
Where “and” joins values, the source holds several entries; their conditions need not be identical. Equal entries are not always repeated.

Tests used:
[1] = Small-molecule drug elution studies from peptide hydrogels; assay type: physicochemical; details: for Drug loading capacity in the peptide hydrogels: SMD 2 mM in peptide hydrogels 20 mM (peptides 1A and 1B)
Protocol: We compared the SMD elution profiles of the peptide hydrogels with the theoretical maximal amount of SMD that would diffuse from the hydrogel into the extra volume of PBS if there were no obstruction to diffusion.
The peptides were weighed out in 4 mL-vials, after which phosphate-buffered saline (PBS) containing the small-molecule drug (SMD final concentration = 2 mM) was added to a final volume of 0.30 mL each. The peptide-SMD-PBS mixtures were then shaken and sonicated for 10 s, after which the mixtures were allowed to anneal for 24 h. After that, 0.75 mL of fresh PBS was slowly added with a pipettor to the surface of the hydrogel so as not to disturb the surface of the gel. After 24 h at 25 °C, the PBS was carefully extracted with a pipettor for UV/vis analysis; a fresh volume (0.75 mL) of PBS was then replaced. This process was repeated as many times as the number of pre-determined elution samples. The extracted PBS was transferred into a cuvette (pathlength = 10 mm) and analysed with an Agilent 8543 UV/visible spectrometer for the presence of the SMD. […] A control experiment was set up for each peptide hydrogel, for which no drug was added. This is to account for absorption at the respective wavelengths due to eluted peptide. The elution profile of each peptide is compared with a theoretical maximal elution profile, viz. the theoretical maximal amount of SMD that would diffuse from the hydrogel into the extra volume of PBS if there were no obstruction to diffusion. The cumulative eluted percentage of SMD at each point is given by: [1 − (1/3.5)^n] 100%, where n is the number of elution.

[2] = cited from earlier work
[3] = Rheological studies of the peptide hydrogels; assay type: physicochemical; details: hydrogels 40 mg/mL in PBS, oscillatory strain sweep, 6.28 rad/s, 25 °C, triplicates
Protocol: Viscoelastic properties of the hydrogels were assessed at 25 °C with an ARES-G2 rheometer (TA Instruments, Piscataway, NJ) in the 25.0 mm-diameter titanium parallel plate geometry and a gap distance of 0.8 mm. For oscillatory frequency sweep studies, the plate rotation was varied between 0.1–100 rad/s at a constant strain of 0.1%. For oscillatory strain sweep studies, the strain was varied between 0.001–100% at a constant frequency of 6.28 rad/s. Each experiment was carried out in triplicates. This procedure was also previously described by us[88].

[4] = Zeta potential measurements of peptide fibrils; assay type: physicochemical; details: in water, peptide 10 mM, 25 °C; mean of triplicate measurements
Protocol: The zeta potential of the peptide fibrils was measured with an Anton Paar Litesizer 500 Particle Sizer. An omega zeta potential cuvette was utilised for the measurements, which was kept at a constant temperature of 25 °C. Triplicate measurements of each peptide sample were made at concentrations of 10 mM in water.

[5] = Solubility of peptides in phosphate-buffered saline to form clear solutions; assay type: physicochemical; details: pH 7.4
Protocol: The peptides were prepared via standard solid-phase peptide synthesis. The purification of all peptides was straightforward, except for peptide 1D. […] As a result, it frequently precipitated on the reversed-phase column during HPLC (high performance liquid chromatography) purification with a gradient of acetonitrile/water, leading to poor yields (<10%). The solubilities of peptides 1 and 2 in phosphate-buffered saline (PBS; pH 7.4) to form clear solutions were then tested; peptides 1A and 2A were also assessed as references. […] As Table 1 indicates, the hexapeptides dissolve to a lower extent than the tripeptides. This is reflective of the greater propensity of the hexapeptides to self-assemble and aggregate due to their longer hydrophobic backbone. In addition, peptides with lysine and arginine dissolve to a greater extent due to their charged side chains at pH 7.4.

[6] = Gelation studies of peptides in PBS; assay type: physicochemical
Protocol: Although peptide 1C could form a gel at 40 mg/mL (30 mM), the hydrogel formed was opaque and inhomogeneous; this is a big contrast to peptide 1A that forms a clear and transparent hydrogel (Fig. 3a). […] On the other hand, perhaps unsurprisingly, the tripeptides generally require higher concentrations to gel. Peptide 2A was previously reported to require a higher peptide concentration to gel than peptide 1A[50]. This has also been observed for peptide 2B, in which 30 mM is required (c.f. 15 mM for peptide 2A). […] As with peptide 1D, peptide 2D could not gel and only precipitated. […] When the hydrophilic components are dominant, the enhanced solubility reduces the driving forces for self-assembly. Consequently, hydrogelation is observed at markedly higher concentrations. Such a balance of hydrophilicity/hydrophobicity has been exploited (via enzymatic control) for the formulation of hydrogels[52],[53].
All peptides were prepared via fluoren-9-ylmethoxycarbonyl (Fmoc)-based solid phase peptide synthesis and purified via reversed-phase high performance liquid chromatography-mass spectrometry (HPLC-MS) on an Agilent 6130 Quadrupole LC/MS system. Peptide hydrogels were prepared by weighing out the appropriate peptide mass in 2 mL-vials. After the requisite volume of phosphate-buffered saline (PBS) was added, the peptide-water mixture was shaken and sonicated for 10 s. […]

[7] = PBS; previously reported; cited from earlier work
Protocol: Although peptide 1C could form a gel at 40 mg/mL (30 mM), the hydrogel formed was opaque and inhomogeneous; this is a big contrast to peptide 1A that forms a clear and transparent hydrogel (Fig. 3a). […] This is a big contrast to peptides 1E and 2E, which were previously reported t ...

Yield stress / strain at which the hydrogel breaks down [3] [%] | Zeta potential [4] | Soluble peptide concentration [5] [mg/mL] | Appearance of hydrogel at 40 mg/mL ([6]; 40 mg/mL in PBS) | Status of gel ([6]; phosphate-buffered saline, pH 7.4, at minimal gelation concentration) | Hydrogel formation with doxorubicin ([1]; doxorubicin 2 mM in PBS) | Encapsulated doxorubicin eluted from peptide hydrogel ([1]; doxorubicin 2 mM in peptide hydrogel 20 mM, PBS pH 7.4, 25 °C, repeated elutions with 0.75 mL PBS, UV/vis 480 nm, n = 3) [%] | Hydrogel formation with naltrexone ([1]; naltrexone 2 mM in PBS) | Molecule | Drug loading capacity in the peptide hydrogels [1] [mg/g] | pKa [2] | Gelation concentration [7] | Hydrogel formation with methotrexate ([1]; methotrexate 2 mM in PBS)
– | – | – | – | – | – | – | – | O=C1CC[C@@]2(O)[C@H]3Cc4ccc(O)c5c4[C@@]2(CCN3CC2CC2)[C@H]1O5 [naltrexone, reference compound] | 0.67 | ~ 8.1 | – | –
3 | +33.40 ± 0.17 mV | 3 | transparent hydrogels | Clear, transparent | formed stable hydrogels | 40 | formed stable hydrogels | acetylated Leu-Ile-Val-Ala-Gly-Lys-NH2 [Peptide 1A] | – | – | 10 mg/mL and 6 mM | could do so with methotrexate (with some coagulation within the hydrogel)
– | – | – | – | – | – | – | – | CN(Cc1cnc2nc(N)nc(N)c2n1)c1ccc(C(=O)N[C@@H](CCC(=O)O)C(=O)O)cc1 [methotrexate, reference compound] | 0.89 | – | – | –
